This note sets out measurements from ChEMBL document CHEMBL5465560, “Selectivity Literature for EUbOPEN Chemogenomic Library” (2024).

SMILES strings stand for the structures. Numbering of substitutions follows the chain as printed.

Assay [1] addresses T1, Discoidin domain-containing receptor 2 (Homo sapiens) (UniProt Q16832).
T1 sequence (whole entry): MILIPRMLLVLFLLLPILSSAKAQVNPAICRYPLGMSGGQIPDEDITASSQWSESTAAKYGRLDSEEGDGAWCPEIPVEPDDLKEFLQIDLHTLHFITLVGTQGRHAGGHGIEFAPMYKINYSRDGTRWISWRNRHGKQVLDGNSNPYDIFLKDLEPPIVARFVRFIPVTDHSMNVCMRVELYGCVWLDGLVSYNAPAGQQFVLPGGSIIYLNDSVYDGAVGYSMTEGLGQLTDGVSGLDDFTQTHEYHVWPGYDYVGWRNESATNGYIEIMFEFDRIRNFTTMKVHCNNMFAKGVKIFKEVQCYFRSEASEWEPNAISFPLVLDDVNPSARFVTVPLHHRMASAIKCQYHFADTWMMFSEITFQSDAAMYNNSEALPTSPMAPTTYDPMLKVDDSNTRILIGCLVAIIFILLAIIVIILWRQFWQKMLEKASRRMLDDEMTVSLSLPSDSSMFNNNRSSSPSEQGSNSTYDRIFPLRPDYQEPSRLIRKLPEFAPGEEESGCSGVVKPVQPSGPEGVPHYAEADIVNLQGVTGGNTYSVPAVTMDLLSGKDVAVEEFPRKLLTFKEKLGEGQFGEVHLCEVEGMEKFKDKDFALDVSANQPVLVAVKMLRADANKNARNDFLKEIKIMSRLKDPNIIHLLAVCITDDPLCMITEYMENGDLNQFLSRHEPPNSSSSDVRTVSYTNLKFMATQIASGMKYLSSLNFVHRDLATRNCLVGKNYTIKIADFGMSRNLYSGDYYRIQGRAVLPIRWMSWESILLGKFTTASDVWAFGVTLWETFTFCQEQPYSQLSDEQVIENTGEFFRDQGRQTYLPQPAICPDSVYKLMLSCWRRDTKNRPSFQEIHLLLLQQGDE
In words: (§1) Selectivity interaction (ProQinase) EUB0000171b DDR2.

Assay [2] relates to T2, Discoidin domain-containing receptor 2 (Homo sapiens), Q16832 [N456S].
T2 sequence (whole entry): T1 sequence (whole entry) with N456S
The assay is described as §1.

Assay [3] deals with T3, Discoidin domain-containing receptor 2 (Homo sapiens), Q16832 [T654M].
T3 sequence (whole entry): T1 sequence (whole entry) with T654M
The assay is described as §1.

Assay [4] has as its target LIM domain kinase 2 (Homo sapiens) (UniProt P53671). Nature of the assay: Selectivity interaction (KinomeScan (DiscoverX)) EUB0001079a LIMK2. As to conditions: at 1 µM.
The target in assay [5] is Mitogen-activated protein kinase kinase kinase kinase 1 (Homo sapiens) (UniProt Q92918). In words: Selectivity interaction (ActivX KiNativ screen (ex vivo kinase selectivity in human PBMCs)) EUB0001619a MAP4K1. Format: cell-based. As to conditions: PBMC, at 1 µM.
Sequence of Mitogen-activated protein kinase kinase kinase kinase 1 (Homo sapiens) (Q92918 whole entry, looked up): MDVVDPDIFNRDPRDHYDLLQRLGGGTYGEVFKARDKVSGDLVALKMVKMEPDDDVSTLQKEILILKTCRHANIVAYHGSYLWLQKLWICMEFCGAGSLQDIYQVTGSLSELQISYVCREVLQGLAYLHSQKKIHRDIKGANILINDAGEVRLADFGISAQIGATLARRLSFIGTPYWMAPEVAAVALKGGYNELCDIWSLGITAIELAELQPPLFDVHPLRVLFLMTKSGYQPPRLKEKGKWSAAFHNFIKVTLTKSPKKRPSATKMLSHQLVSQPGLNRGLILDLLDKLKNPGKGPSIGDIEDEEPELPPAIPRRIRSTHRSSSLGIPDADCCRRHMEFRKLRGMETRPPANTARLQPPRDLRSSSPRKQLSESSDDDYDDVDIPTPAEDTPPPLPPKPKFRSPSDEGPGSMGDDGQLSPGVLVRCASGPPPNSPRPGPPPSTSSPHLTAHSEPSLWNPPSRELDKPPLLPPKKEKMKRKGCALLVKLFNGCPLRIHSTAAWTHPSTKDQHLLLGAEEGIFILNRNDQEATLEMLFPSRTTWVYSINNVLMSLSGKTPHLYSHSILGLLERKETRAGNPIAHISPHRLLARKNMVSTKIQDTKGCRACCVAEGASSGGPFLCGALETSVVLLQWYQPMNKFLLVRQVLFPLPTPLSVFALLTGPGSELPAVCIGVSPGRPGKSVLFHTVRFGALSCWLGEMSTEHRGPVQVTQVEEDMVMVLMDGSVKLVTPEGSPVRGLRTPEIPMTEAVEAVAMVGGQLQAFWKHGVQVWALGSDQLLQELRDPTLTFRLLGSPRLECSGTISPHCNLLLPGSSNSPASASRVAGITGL

Sequence of LIM domain kinase 2 (Homo sapiens) (P53671 whole entry, looked up, the tested form may be a part): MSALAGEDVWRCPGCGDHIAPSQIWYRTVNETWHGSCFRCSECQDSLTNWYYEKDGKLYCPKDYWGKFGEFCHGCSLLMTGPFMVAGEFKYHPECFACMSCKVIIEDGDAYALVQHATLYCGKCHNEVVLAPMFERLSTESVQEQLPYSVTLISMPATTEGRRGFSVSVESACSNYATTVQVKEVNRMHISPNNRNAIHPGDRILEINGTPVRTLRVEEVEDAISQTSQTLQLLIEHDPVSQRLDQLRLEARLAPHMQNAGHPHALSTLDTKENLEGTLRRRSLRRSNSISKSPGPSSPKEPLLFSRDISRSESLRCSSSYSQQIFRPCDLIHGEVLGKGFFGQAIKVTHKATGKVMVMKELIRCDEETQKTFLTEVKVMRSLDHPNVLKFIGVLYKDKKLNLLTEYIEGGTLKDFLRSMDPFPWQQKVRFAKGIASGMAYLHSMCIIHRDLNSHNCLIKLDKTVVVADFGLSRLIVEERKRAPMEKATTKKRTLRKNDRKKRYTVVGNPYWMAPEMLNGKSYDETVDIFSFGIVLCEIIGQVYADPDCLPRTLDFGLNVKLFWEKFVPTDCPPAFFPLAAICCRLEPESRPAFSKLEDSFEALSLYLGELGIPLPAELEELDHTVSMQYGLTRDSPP

In the case of `C=CC(=O)Nc1cccc(C(=O)Nc2ccc(Nc3cc(-c4[nH]c(SC)nc4C)ccn3)cc2)c1`, the % of control in assay [1] (at 1 µM) amounted to 90%; in assay [1] (at 5 µM), 76%; in assay [2] (at 1 µM) it was 88%; in assay [2] (at 5 µM), 67%; in assay [3] (at 1 µM) it was 89%; in assay [3] (at 5 µM), 70%.

`Nc1cnc(N2CCc3cc(S(=O)(=O)Nc4c(F)cc(Cl)cc4F)cc(N4CCCC4=O)c32)nc1` [TP-020n] had a % of control in assay [4] of 100%.

`N#Cc1cccc(-c2c[nH]c3ncnc(N4CCOCC4)c23)c1` came in with a % of inhibition in assay [5] of 7%.
